Assay results from patent US6338862B1, “Composition and method of use in treating sexual dysfunction using cGMP-specific phosphodiesterase type 5 inhibitors” (priority 2001, dated 2002).

Columns and labels:
[1] = tested on: subjects who had been frequent users of Viagra®; assay: blinded study in volunteers, subjective evaluation whether an adequate, satisfactory erection was achieved; assay type: in vivo, human; details: oral capsule, out of 12 subjects
Procedure: In its preferred embodiment, three composition containing sildenafil citrate 12.5 mg, 25 or 50 mg containing the same amounts of L-arginine 200 mg, ginseng 100 mg, folic acid 0.5 mg, vitamin B6 100 mg and vitamin B12 0.75 mg were formulated in a capsule dosage form with suitable inert diluents to hide the identity of the product. […] In a blinded study, the volunteers were given all six products to test on an ad-lib basis. They were informed that the test includes evaluation of two formulations of sildenafil citrate. The volunteers were asked to evaluate the response subjectively whether an adequate, satisfactory erection was achieved. In its preferred embodiment, three composition containing sildenafil citrate 12.5 mg, 25 or 50 mg, and the same amounts of L-arginine 200 mg, ginseng 100 mg, folic acid 0.5 mg, vitamin B6 100 mg and vitamin B12 0.75 mg were formulated in a capsule dosage form with suitable inert diluents to hide the identity of the product. […] In a blinded study, the volunteers were given all six products to test on an ad-lib basis. They were informed that the test includes evaluation of two formulations of sildenafil citrate. At the lowest dose of 12.5 mg, when given alone, only 3 out of 12 subjects reported erection; when given as the composition described, 7 out of 12 subjects reported satisfactory erection. At 25 mg dose 8 out of 12 subjects reported satisfactory erection while 10 subjects reported satisfactory erection at 25 mg dose when given as the composition described. At 50 mg dose the difference was narrowed to 10 subjects reporting erection when given alone and 11 when given as the composition described. It is concluded from this study that using the combination of ingredients as specified in the composition, the required dose of sildenafil to treat sexual dysfunction can be reduced to achieve the same effect as when given alone but at higher does. The most significant advantage appears at lower doses. […]

men = details: controlled clinical trials; cited from earlier work
[2] = tested on: isolated human corpus cavernosum; details: cited from earlier work

CCCc1nn(C)c2c(=O)[nH]c(-c3cc(S(=O)(=O)N4CCN(C)CC4)ccc3OCC)nc12.O=C(O)CC(O)(CC(=O)O)C(=O)O [Viagra®, 1-[[3-(6,7-dihydro-1-methyL-7-oxo-3-propyL-1H-pyrazolo[4,3-d]pyrimidin-5-yl)-4-ethoxyphenyl]sulfonyl]-4-methylpiperazine citrate]
subjects reporting satisfactory erection ([1]; 12.5 mg sildenafil citrate dose): 3 subjects | subjects reporting satisfactory erection ([1]; 25 mg sildenafil citrate dose): 8 subjects | subjects reporting satisfactory erection ([1]; 50 mg sildenafil citrate dose): 10 subjects | proves effective in men (men): 7 out of 10 | direct relaxant effect [2]: no direct relaxant effect
